From PubChem BioAssay (NCI)
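The compound was tested at five concentrations on cells cultured in 96-well plates, with a 48-hour exposure period. Abbreviation: GI50, concentration required for 50% inhibition of growth. TGI: total growth inhibition.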

What was measured:
Test in all cases: NCI anticancer screen, dose series, 48 h
XF 498 CNS = tested on: XF 498 CNS
KM20L2 colon = tested on: KM20L2 colon
RXF-631 renal = tested on: RXF-631 renal
M19-MEL melanoma = tested on: M19-MEL melanoma
DMS 114 small cell lung = tested on: DMS 114 small cell lung
LXFL 529 NSCLC = tested on: LXFL 529 NSCLC
DLD-1 colon = tested on: DLD-1 colon
SNB-78 CNS = tested on: SNB-78 CNS
HOP-18 NSCLC = tested on: HOP-18 NSCLC

SMILES	TGI (XF 498 CNS)	TGI (KM20L2 colon)	TGI (RXF-631 renal)	TGI (M19-MEL melanoma)	TGI (DMS 114 small cell lung)	TGI (LXFL 529 NSCLC)	TGI (DLD-1 colon)	TGI (SNB-78 CNS)	TGI (HOP-18 NSCLC)	GI50 (XF 498 CNS)	GI50 (KM20L2 colon)	GI50 (RXF-631 renal)	GI50 (M19-MEL melanoma)	GI50 (DMS 114 small cell lung)	GI50 (LXFL 529 NSCLC)	GI50 (DLD-1 colon)	GI50 (HOP-18 NSCLC)	GI50 (SNB-78 CNS)
O=CN1CCN(C=S)CC1	> 100 µM	> 100 µM	> 100 µM	> 100 µM	> 100 µM	> 100 µM	> 100 µM	> 100 µM	–	–	–	–	–	–	–	–	–	–
CNC(=O)OCc1[nH]ccc2c(C)c3nc4ccc(OC)cc4c3cc12	> 33.8 µM	> 27.5 µM	–	> 100 µM	–	> 100 µM	> 100 µM	> 100 µM	34.1 µM	–	–	–	–	–	–	–	–	–
COC(=O)C1=Cc2c(cc(OC)c(OC)c2OC)[C@H](c2ccc(OC)c(OC)c2OC)C1C(=O)OC (stereo partly specified)	–	> 100 µM	> 100 µM	> 100 µM	> 100 µM	> 100 µM	> 100 µM	> 100 µM	–	–	–	–	–	–	–	–	–	–
Clc1cc(Cl)cc(Nc2nc3ccccc3nc2-c2cccs2)c1	73.2 µM	–	31.8 µM	88.2 µM	–	> 100 µM	> 100 µM	> 100 µM	88.8 µM	–	–	–	–	–	–	–	–	–
NC1=C(Cl)C(=O)c2ccccc2C1=O	24.5 µM	28 µM	–	1.76 µM	13.4 µM	25.2 µM	37.9 µM	> 63.3 µM	22 µM	–	–	–	–	–	–	–	–	–
C[Si]12OCCCN(CCO1)CCO2	–	–	–	> 100 µM	> 100 µM	> 100 µM	> 100 µM	> 100 µM	–	–	–	–	–	–	–	–	–	–
CC1CC2(CCC1OCc1ccccc1)OCCO2 (stereo unspecified)	> 100 µM	–	–	> 100 µM	> 100 µM	> 100 µM	> 100 µM	> 100 µM	–	–	–	–	–	–	–	–	–	–
CC(=O)O[C@H]1CC[C@@]2(C)C(=CC[C@@H]3C2CC[C@]2(C)Nc4[nH]ncc4CC32)C1 (stereo partly specified)	34.2 µM	85.2 µM	34.7 µM	60.1 µM	34.2 µM	36.4 µM	93.8 µM	> 100 µM	–	–	–	–	–	–	–	–	–	–
COc1ccccc1NC(=O)CC(=O)NNCC(=O)Nc1nnc(-c2ccccc2)o1	> 100 µM	> 100 µM	> 100 µM	> 100 µM	> 100 µM	> 100 µM	> 100 µM	> 100 µM	–	–	–	–	–	–	–	–	–	–
Cc1cc(NC(=O)NC(=O)c2ccccc2NC(=O)CN)ccc1Oc1ncc(Br)cn1	75 µM	18.6 µM	–	–	75 µM	75 µM	4.62 µM	–	–	–	–	–	–	–	–	–	–	–
CCC[CH2][Sn]1([CH2]CCC)[O]C(=O)CN=Cc2ccccc2[O]1	0.282 µM	2.26 µM	0.324 µM	1.15 µM	0.295 µM	0.236 µM	> 100 µM	1.34 µM	1.36 µM	0.137 µM	1.02 µM	0.182 µM	0.249 µM	0.134 µM	0.102 µM	0.568 µM	0.337 µM	0.232 µM
CC1=CC2CC(C)C1(C)CCc1ccoc12 (stereo unspecified)	> 100 µM	> 100 µM	> 100 µM	> 100 µM	> 100 µM	> 100 µM	> 100 µM	> 100 µM	> 100 µM	–	–	–	–	–	–	–	–	–
Cc1c(O)c(=O)ccn1CCO	> 100 µM	> 100 µM	–	> 100 µM	> 100 µM	> 100 µM	> 100 µM	> 100 µM	> 100 µM	–	–	–	–	–	–	–	–	–
C=CCN(CC=C)CC(C(C)=O)C(c1ccccc1)c1c(O)c2ccccc2oc1=O (stereo unspecified)	> 100 µM	> 100 µM	–	> 100 µM	> 100 µM	> 100 µM	> 100 µM	> 100 µM	–	–	–	–	–	–	–	–	–	–
O=C(O)c1ccc(C2C3C=CC(C3)C2[N+](=O)[O-])cc1 (stereo unspecified)	> 100 µM	> 100 µM	> 100 µM	> 100 µM	> 100 µM	> 100 µM	> 100 µM	> 100 µM	–	–	–	–	–	–	–	–	–	–
Cn1c(=O)oc2cc(C3CCC(=O)N3Cc3ccc(Cl)cc3)ccc21 (stereo unspecified)	> 100 µM	> 100 µM	–	> 100 µM	> 100 µM	> 100 µM	> 100 µM	> 100 µM	> 100 µM	–	–	–	–	–	–	–	–	–
COc1ccccc1NC(=O)C1=C(C)NC(C)=C(C(=O)Nc2ccccc2OC)C1c1cccc2c1OCO2	–	> 100 µM	> 100 µM	> 100 µM	> 100 µM	> 100 µM	> 100 µM	–	> 100 µM	–	–	–	–	–	–	–	–	–
O=C(O)CCCNS(=O)(=O)c1ccc2ccccc2c1	> 100 µM	> 100 µM	> 100 µM	> 100 µM	–	> 100 µM	> 100 µM	–	> 100 µM	–	–	–	–	–	–	–	–	–
CCOC(=O)c1cnc2cc3cccccc3n2c1=O	–	> 100 µM	–	–	> 100 µM	> 100 µM	> 100 µM	> 100 µM	–	–	–	–	–	–	–	–	–	–
